Test results reported in patent US5652271A, “Therapeutic agents” (Knoll Aktiengesellschaft, priority 1993, dated 1997).
Structures can show the parent of a compound that is named as a salt. Where two headings read alike, the source gives them in different places.

Tests used:
[1] = system: ptosis (eye closure) induced by reserpine; test: prevention of ptosis (eye closure) induced by reserpine in rats; assay type: in vivo, rat (male, Charles River CD strain)
Source text: Male rats of the Charles River CD strain weighing between 140 and 180 g were randomly separated into five rats in each cage and supplied with food and water ad libitum. Eighteen hours prior to initiation of the test four of the five rats were marked with a pen such that each rat was individually identifiable; food was then withdrawn. The following morning, two hours before the test, the rats were weighed and a semi-randomised code was used to allocate treatments to rats. The test commenced by orally administering either:
The degree of ptosis was scored […] later using the following observer rating system: 0=eye fully open, 1=eye 1/4closed, 2=eye 1/2closed, 3=eye 3/4closed, 4=eye fully closed. A mean ptosis score was then calculated for all identically treated rats usually comprising a group of eight rats. […] It is widely understoodby those skilled in the art that this test is indicative of compounds having antidepressant activity in humans.

[2] = biological target: dopamine reuptake sites (Rattus norvegicus, UniProt P23977); test: inhibition of [3H]dopamine uptake in vitro in rat striatal synaptosomes; assay type: biochemical, rat (male Charles River); conditions: [3H]dopamine (2.5 nM) uptake, 5 minutes at 37° C.; calculated from IC50; means ± sem of three independent determinations
Procedure: Striatal tissue from the brains of male Charles River rats weighing 150-250 g was homogenised in ice-cold 0.32M sucrose (1:10 w/v) using a motor driven teflon pestle (difference in diameter between mortar and pestle 0.5 mm). Nuclei and cell debris were removed by centrifugation at 1,500 g at 4° C. for 10 minutes. The pellet (P1) was discarded and the supernatant centrifuged at 18,000 g at 4° C. for 10 minutes. The crude synaptosomal pellet (P2) was resuspended in Krebs-Henseleit buffer (equivalent to 4.2 mg wet weight of tissue/ml).
Crude synaptosomes were incubated in a shaking water bath at 37° C. for 15 minutes. Aliquots (150 μl; equivalent to 0.625 mg wet weight of tissue/tube) were then added to tubes containing 275 μl of Krebs-Henseleit buffer and 50 μl of Krebs-Henseleit buffer (total uptake) or 50 μl of test compound (10 concentrations ranging from 10-11-10-4M) or 50 μl of GBR 12909 (10^-5M; non-specific uptake). Uptake was initiated by the addition of 25 μl of freshly prepared [3H]dopamine(2.5 nM), followed by vortexing and was continued for 5 minutes at 37° C. in the shaking water bath.
Uptake was terminated by filtration under vacuum through Skatron 11735 filters using a Skatron cell harvester. Filters were than washed with 8 ml ice-cold saline. The scored filter paper discs were punched into vials, scintillation fluid added and radioactivity determinedby liquid scintillation counting.
The percentage inhibition of specific uptake of the tritiated ligand was calculated for each concentration of test compound. Inhibition curves were then produced. The concentration of compounds which gave 50% inhibition of specific uptake (IC50) was obtained from the curve. The inhibition constant (Ki) was then calculated using the formula [formula] in which [L] is the concentration of tritiated ligand used and Km is the affinity of the uptake site for the ligand. The Ki values for compounds for formula I and III are given in Table 1 as the means ± sem of three independent determinations.

[3] = Rattus norvegicus, po, 3 h, dose causing 50% prevention of reserpine-induced ptosis, test compound oral, reserpine 0.75 mg/kg intravenous, scored three hours later, read-out: ED50

dopamine reuptake sites, sequence (P23977 whole entry): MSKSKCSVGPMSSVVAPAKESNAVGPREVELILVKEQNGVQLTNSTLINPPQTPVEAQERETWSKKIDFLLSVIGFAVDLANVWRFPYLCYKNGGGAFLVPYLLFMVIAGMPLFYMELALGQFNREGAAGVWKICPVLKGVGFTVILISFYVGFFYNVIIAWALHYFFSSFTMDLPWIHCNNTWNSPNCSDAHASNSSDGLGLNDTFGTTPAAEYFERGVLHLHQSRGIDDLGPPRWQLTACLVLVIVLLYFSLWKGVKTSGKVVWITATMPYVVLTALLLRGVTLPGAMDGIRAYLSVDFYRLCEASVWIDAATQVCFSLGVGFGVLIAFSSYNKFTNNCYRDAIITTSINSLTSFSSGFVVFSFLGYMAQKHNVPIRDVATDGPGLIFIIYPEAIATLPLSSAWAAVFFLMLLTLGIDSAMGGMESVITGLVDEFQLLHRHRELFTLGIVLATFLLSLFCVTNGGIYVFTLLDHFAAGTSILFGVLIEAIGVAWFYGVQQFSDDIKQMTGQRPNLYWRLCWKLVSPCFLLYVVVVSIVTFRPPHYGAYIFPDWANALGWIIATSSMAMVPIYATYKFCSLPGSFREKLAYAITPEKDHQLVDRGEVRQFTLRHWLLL

Compound	ED50 ([1]; dose causing 50% prevention of reserpine-induced ptosis, test compound oral, reserpine 0.75 mg/kg intravenous, scored three hours later, citrate) [mg/kg]	ED50 [1, 3] [mg/kg]	Ki [2] [nM]	ED50 ([1]; Rattus norvegicus, po, 3 h) [mg/kg]
CN(C)CCCSCC(O)C1(c2ccc(Cl)c(Cl)c2)CCC1.O=C(O)CC(O)(CC(=O)O)C(=O)O (single isomer, unassigned; (+)) [Example 17, (+)-1-[1-(3,4-dichlorophenyl)cyclobutyl]-2-[3-(dimethylamino)-propylthio]ethanol citrate]	2.5			
CN(C)CCCSCC(O)C1(c2ccc(Cl)c(Cl)c2)CCC1.O=C(O)CC(O)(CC(=O)O)C(=O)O (single isomer, unassigned; (-)) [Example 16, (-)-1-[1-(3,4-dichlorophenyl)cyclobutyl]-2-[3-(dimethylamino)propylthio]ethanol citrate]		2.2		
CN(C)CCSCC(=O)C1(c2ccc(Cl)c(Cl)c2)CCC1.Cl [Example 1, 1-[1-(3,4-dichlorophenyl)cyclobutyl]-2-[2-(dimethyl-amino)ethylthio]ethanone hydrochloride]		8.5		
CN(C)CC[S+]([O-])CC(=O)C1(c2ccc(Cl)c(Cl)c2)CCC1.Cl (stereo not drawn) [Example 2, 1-[1-(3,4-dichlorophenyl)cyclobutyl]-2-[2-(dimethylamino)ethylsulphinyl]ethanone hydrochloride]		7.7		
CN(C)CCS(=O)(=O)CC(=O)C1(c2ccc(Cl)c(Cl)c2)CCC1.Cl [Example 3, 1-[1-(3,4-dichlorophenyl)cyclobutyl]-2-[2-(dimethylamino)ethylsulphonyl]ethanone hydrochloride]		5.9		
CCN(CC)CCSCC(=O)C1(c2ccc(Cl)c(Cl)c2)CCC1 [Example 4, 1-[1-(3,4-dichlorophenyl)cyclobutyl]-2-[2-(diethylamino)ethylthio]ethanonehydrochloride]		9.7		
CN(CCSCC(=O)C1(c2ccc(Cl)c(Cl)c2)CCC1)Cc1ccccc1.Cl [Example 5, 2-[2-(N-benzyl-N-methylamino)ethylthio]-1-[1-(3,4-dichlorophenyl)cyclobutyl]ethanone hydrochloride]		16.4		
CN(C)CCSCC(O)C1(c2ccc(Cl)c(Cl)c2)CCC1.Cl (stereo not drawn) [Example 6, 1-[1-(3,4-dichlorophenyl)cyclobutyl]-2-[2-(dimethyl-amino)ethylthio]ethanol hydrochloride]		5.7		
CN(C)CCCSCC(=O)C1(c2ccc(Cl)c(Cl)c2)CCC1.Cl [Example 7, 1-[1-(3,4-dichlorophenyl)-cyclobutyl]-2-[3-(dimethylamino)propylthio]ethanone hydrochloride]		4.2	5 ± 0.5	
CN(C)CCCS(=O)(=O)CC(=O)C1(c2ccc(Cl)c(Cl)c2)CCC1.Cl [Example 8, 1-[1-(3,4-dichlorophenyl)cyclobutyl]-2-[3-(dimethylamino)propylsulphonyl]ethanone hydrochloride]		3.4	13.4 ± 0.1	
CN(C)CCCSCC(O)C1(c2ccc(Cl)c(Cl)c2)CCC1 (stereo not drawn) [Example 9, 1-[1-(3,4-dichlorophenyl)cyclobutyl]-2-[3-(dimethylamino)propyl-thio]ethanol]		4.8	7.3 ± 1.6	
CC(CSCC(=O)C1(c2ccc(Cl)c(Cl)c2)CCC1)CN(C)C (stereo not drawn) [Example 10, 1-[1-(3,4-dichlorophenyl)cyclobutyl]-2-[3-(dimethylamino)-2-methylpropylthio]ethanone]		8.7	7.2 ± 1	
CN(C)CCSCC(=O)C1(c2ccc3ccccc3c2)CCC1.Cl [Example 11, 2-[2-(dimethylamino)ethylthio]-1-[1-(2-naphthyl)cyclobutyl]ethanone hydrochloride]		24.1		
CN(C)CCCSCC(=O)C1(c2cccc(Cl)c2)CCC1.Cl [Example 12, 1-[1-(3-chlorophenyl)cyclobutyl]-2-[3-(dimethylamino)propylthio]ethanone hydrochloride]		23.4		
CN(C)CCCCSCC(=O)C1(c2ccc(Cl)c(Cl)c2)CCC1.Cl [Example 13, 1-[1-(3,4-dichlorophenyl)cyclobutyl]-2-[4-(dimethylamino)-butylthio]ethanone hydrochloride]		5.9	6.5 ± 1	
CCCN(CCC)CCCSCC(=O)C1(c2ccc(Cl)c(Cl)c2)CCC1 [Example 14, 1-[1-(3,4-dichlorophenyl)cyclobutyl]-2-[3-(dipropylamino)propylthio]ethanone]		7.3	13.4 ± 2.1	
CN(C)CCCSCC(=O)C1(c2ccc(Cl)c(Cl)c2)CCC1.O=C(O)/C=C/C(=O)O [Example 15, 1-[1-(3,4-dichloro-phenyl)cyclobutyl]-2-[3-(dimethylamino)propylthio]ethanone fumarate]		4	3.7 ± 0.4	
CN(C)CCCSCC(=O)C1(c2ccc(Cl)c(Cl)c2)CCC1.O=C(O)CC(O)(CC(=O)O)C(=O)O [Example 18, 1-[1-(3,4-dichlorophenyl)cyclobutyl]-2-[3-(dimethylamino)propylthio]ethanone citrate]			4.2 ± 0.4	4.9
CC(CSCC(O)C1(c2ccc(Cl)c(Cl)c2)CCC1)CN(C)C (stereo not drawn) [Example 19, 1-[1-(3,4-dichlorophenyl)cyclobutyl]-2-[3-(dimethylamino)-2-methylpropylthio]ethanol]		6.9	6.9 ± 0.6	
CN(C)CCCSCC(=O)C1(c2ccc(Cl)c(Cl)c2)CCCC1.Cl [Example 20, 1-[1-(3,4-dichlorophenyl)cyclopentyl]-2-[3-(dimethylamino)propylthio]ethanone hydrochloride]		3.7	4.4 ± 0.2	
